Measured values taken from patent publication US10780084B2, “Antibody-recruiting molecules for the treatment of cancer” (YALE UNIVERSITY, priority 2016, dated 2020).

Target: T1, recombinant uPAR (Homo sapiens, UniProt Q03405)
T1 construct: purchased R&D systems
Assay: Competitive ELISA uPAR binding assay (displacement of uPAR from immobilized urokinase)
Conditions: for IC50 / Ki: ELISA assay, competition with urokinase for recombinant uPAR; for Ratio of IC50 (Compound)/IC50 6-ABT-1: relative to control 6-ABT-1
Experimental: The affinity of derivatives are assayed using a competitive ELISA binding assay. The assay involves the immobilization of urokinase, a natural high affinity ligand for uPAR followed by the addition of a fixed concentration of recombinant uPAR protein and increasing concentrations of test compounds which competes with urokinase for binding to the uPA binding site of uPAR. Following several washing steps, the amount of uPAR bound is quantified by a biotinylated anti-uPAR antibody and avidin-HRP and can be fit to a competitive binding model allowing for determination of the uPAR/test compound Kd.
All derivatives were assessed for their ability to hind selectively to recombinant uPAR in vitro using a competitive ELISA binding assay. DMSO stock solutions of each derivative stored at −20° C. were titrated into wells pre-coated with human urokinase (isolated from human urine, ProSpec 1 mg/mL deionized water 18.5 μM) in the presence of uPAR. Selective binding to uPAR by compounds at the uPA binding site competes with uPAR-uPA binding which is required for a positive UV 450 nm absorbance signal. Increasing concentrations of test compound displace increasing amounts of uPAR from uPA which is detected by anti-uPAR/biotin labeled antibodies followed by avidin-HRP.
ELISA assay substantially as described above was used to test certain of the compounds of the present invention for biological characteristics. In addition, the compound 6-ABT-1 as described in WO2017/023994 was tested as a control.

T1 sequence (Q03405 23-305): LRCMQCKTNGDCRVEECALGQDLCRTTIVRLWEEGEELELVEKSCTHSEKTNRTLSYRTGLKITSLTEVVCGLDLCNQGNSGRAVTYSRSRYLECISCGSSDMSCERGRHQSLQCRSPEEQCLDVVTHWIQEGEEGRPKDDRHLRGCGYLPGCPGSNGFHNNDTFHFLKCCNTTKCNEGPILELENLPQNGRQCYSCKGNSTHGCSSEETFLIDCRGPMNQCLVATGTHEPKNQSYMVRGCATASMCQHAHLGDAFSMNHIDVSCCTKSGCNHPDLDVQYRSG

| Structure (SMILES) | IC50 | Ki | Ratio of IC50 (Compound)/IC50 6-ABT-1 |
| --- | --- | --- | --- |
| O=C1c2ccccc2-c2onc3c(N4CCC(C(=O)NCCCOCCOCCOCCCNc5ccc([N+](=O)[O-])cc5[N+](=O)[O-])CC4)cc(Nc4ccc(S(=O)(=O)O)cc4)c1c23 [ARM-U2 derivative 7-ABT-5] | 2.36 µM | 0.0484 µM | 1.15 |
| COC(=O)c1ccc(Nc2cc(N3CCC(C(=O)NCCCOCCOCCOCCCNc4ccc([N+](=O)[O-])cc4[N+](=O)[O-])CC3)c3noc4c3c2C(=O)c2ccccc2-4)c(C(=O)OC)c1 [ARM-U2 derivative 11-ABT-5] | > 100 µM | > 2 µM | >56 |
| NS(=O)(=O)c1ccc(Nc2cc(N3CCC(C(=O)NCCCOCCOCCOCCCNc4ccc([N+](=O)[O-])cc4[N+](=O)[O-])CC3)c3noc4c3c2C(=O)c2ccccc2-4)cc1 [ARM-U2 derivative 14-ABT-5] | > 100 µM | > 2 µM | 71.4 |
| COC(=O)c1cc(Nc2cc(N3CCC(C(=O)NCCCOCCOCCOCCCNc4ccc([N+](=O)[O-])cc4[N+](=O)[O-])CC3)c3noc4c3c2C(=O)c2ccccc2-4)nn1C [ARM-U2 derivative 13-ABT-5] | > 100 µM | > 2 µM | 71.4 |
| O=C1c2ccccc2-c2onc3c(N4CCC(C(=O)NCCCOCCOCCOCCCNc5ccc([N+](=O)[O-])cc5[N+](=O)[O-])CC4)cc(Nc4ccc(Cl)cc4S(=O)(=O)O)c1c23 [ARM-U2 derivative 9-ABT-5] | 0.485 µM | 0.00984 µM | 0.255 |
| COC(=O)c1ccc(Nc2cc(N3CCC(C(=O)NCCCOCCOCCOCCCNc4ccc([N+](=O)[O-])cc4[N+](=O)[O-])CC3)c3noc4c3c2C(=O)c2ccccc2-4)cc1 [ARM-U2 derivative 10-ABT-5] | > 100 µM | > 2 µM | 71.4 |
| COC(=O)c1ccc(Nc2cc(N3CCC(C(=O)NCCCOCCOCCOCCCNc4ccc([N+](=O)[O-])cc4[N+](=O)[O-])CC3)c3noc4c3c2C(=O)c2ccccc2-4)c(Cl)c1 [ARM-U2 derivative 12-ABT-5] | > 100 µM | > 2 µM | 71.4 |
| COc1ccc(Nc2cc(N3CCC(C(=O)NCCCOCCOCCOCCCNc4ccc([N+](=O)[O-])cc4[N+](=O)[O-])CC3)c3noc4c3c2C(=O)c2ccccc2-4)c(S(=O)(=O)O)c1 [ARM-U2 derivative 8-ABT-5] | 0.54 µM | 0.011 µM | 0.28 |
| O=C1c2ccccc2-c2onc3c(N4CCC(C(=O)NCCCOCCOCCOCCCNc5ccc([N+](=O)[O-])cc5[N+](=O)[O-])CC4)cc(Nc4ccc(S(=O)(=O)O)cc4S(=O)(=O)O)c1c23 [ARM-U2 derivative 6-ABT-5] | 0.544 µM | 0.011 µM | 0.7 |

Now from value to compound:

| IC50 | Ki | Ratio of IC50 (Compound)/IC50 6-ABT-1 | Structure (SMILES) |
| --- | --- | --- | --- |
| 2.57 µM | 0.0527 µM | 0.81 | O=C1c2ccccc2-c2onc3c(N4CCC(C(=O)NCCCOCCOCCOCCCNc5ccc([N+](=O)[O-])cc5[N+](=O)[O-])CC4)cc(Nc4cc(S(=O)(=O)O)ccc4S(=O)(=O)O)c1c23 [ARM-U2 derivative 19-ABT-5] |
| 55.2 µM | 1.14 µM | 39.41 | CCOC(=O)c1cn(C)nc1Nc1cc(N2CCC(C(=O)NCCCOCCOCCOCCCNc3ccc([N+](=O)[O-])cc3[N+](=O)[O-])CC2)c2noc3c2c1C(=O)c1ccccc1-3 [ARM-U2 derivative 16-ABT-5] |
| 18 µM | 0.371 µM | 12.85 | O=C1c2ccccc2-c2onc3c(N4CCC(C(=O)NCCCOCCOCCOCCCNc5ccc([N+](=O)[O-])cc5[N+](=O)[O-])CC4)cc(Nc4cc(C5CC5)no4)c1c23 [ARM-U2 derivative 15-ABT-5] |
| 3.09 µM | 0.0635 µM | 0.98 | O=C(O)c1cc(Cl)ccc1Nc1cc(N2CCC(C(=O)NCCCOCCOCCOCCCNc3ccc([N+](=O)[O-])cc3[N+](=O)[O-])CC2)c2noc3c2c1C(=O)c1ccccc1-3 [ARM-U2 derivative 18-ABT-5] |
| > 100 µM | > 2 µM | >31 | COC(=O)c1cc(OC)ccc1Nc1cc(N2CCC(C(=O)NCCCOCCOCCOCCCNc3ccc([N+](=O)[O-])cc3[N+](=O)[O-])CC2)c2noc3c2c1C(=O)c1ccccc1-3 [ARM-U2 derivative 17-ABT-5] |
